Assay results published in US12338456B2, “Method for increasing the specific production rate of eukaryotic cells” (Hoffmann-La Roche Inc., priority 2014, dated 2025).
Entries after “also recorded” stand apart in the source; their conditions may differ.

Tests used:
CHO cells = conditions: cited from earlier work
[1] = tested on: recombinant CHO-K1 cell line, called clone 1, expressing a humanized monoclonal antibody; assay: CHO fed-batch cultivation with para-, ortho- or meta-Tyr supplementation under Phe non-limitation conditions; assay type: cell-based, Chinese Hamster
Experimental: (§1) For all cell culture experiments a recombinant CHO-K1 cell line, called clone 1, expressing a humanized monoclonal antibody was used. The recombinant CHO-K1 cell line was generated using an L-methionine sulfoximine sensitive CHO-K1 host cell line (Lonza, Cologne, Germany). The cells were cultivated in protein free, chemically defined CD-CHO medium (Life Technologies, Darmstadt, Germany) supplemented with 50 μM L-methionine sulfoximine (Sigma Aldrich, Munich, Germany) during seed train cultivation. Seed train cultivation was performed in shake flasks using a humidified incubator, 7% CO2, and 37° C. setting. The cells were splitted every three to four days for subcultivation and culture expansion. For all experiments, cells with identical age in culture (appr. 21 generations) until start of the experiment were used.
(§2) All supplementation experiments were performed using shake flask cultivation systems, chemically defined CD-CHO medium without the selection pressure L-methionine sulfoximine and two appropriate serial continuous applied feeds (feed 1 and feed 2). Recombinant CHO-K1 cells producing a humanized monoclonal antibody were inoculated with 3×10^5 viable cells/mL and cultured for 14 days. CD-CHO base medium was sterile supplemented before inoculation with 0.1 mM, 0.3 mM or 0.4 mM of either ortho-Tyr, meta-Tyr or para-Tyr. Control cultivation with no supplementation of ortho-Tyr, meta-Tyr or para-Tyr was used as reference. Phenylalanine (Phe) non-limitation conditions were realized by increasing concentration of Phe in feed 2.
(§3) For analysis of viable and total cell densities an automated Cedex HiRes system (Roche Diagnostics, Mannheim, Germany) was used. Discrimination of viable and total cell densities were evaluated using the trypan blue exclusion staining method and analyzing more than 10 pictures per sample and day according to the manufacturer's specifications. Viable cell density (VCD) and cell viability were calculated as described in equation 1 (Equ 1) and equation 2 (Equ 2), respectively. Viable cell density=NTrypan blue negative×(10^5 viable cells/ml) (Equ 1) Cell viability=NTrypan blue negative/(NTrypan blue negative+NTrypan blue positive cells)×100% (Equ 2)
(§4) As indicator for overall biomass generation in the process a cumulative cell time integral (CTI) was calculated as followed (Equ 3). Cell time integral=Σ(0.5×(VCDn−1+VCDn)×(tn−tn−1))×(10^5 viable cells×d/ml) (Equ 3)
(§5) Product titer war either quantified by a Cobas Integra 400 plus system (Roche, Mannheim, Germany) according to the manufacture's protocol or by PorosA HPLC method as described previously (Zeck et al. 2012). The overall specific productivity qP was calculated for the analysis of cell production capacity according to equation 4. qP=(Titern−Titern−1)/(CTIn−CTIn−1)×(pg/(viable cell×d)) (Equ 4) Determination of Peptide Sequence Variants and Identification of Meta- and Ortho-Tyr Sequence Variants with Synthetic Peptides
In a second approach, the role of meta- and ortho-Tyr supplementation under Phe non-limitation conditions in CHO fed-batch cultivations was analyzed. For that, the amount of Phe in feed 2 was increased to prevent Phe limitation (FIG. 6).

[2] = tested on: recombinant CHO-K1 cell line, called clone 1, expressing a humanized monoclonal antibody; assay: CHO fed-batch cultivation with para-, ortho- or meta-Tyr supplementation under Phe limitation conditions; assay type: cell-based, Chinese Hamster
Experimental: as §1, §2, §3, §4
Lactate dehydrogenase (LDH) activity in the cell-free supernatant was analyzed using a Cobas Integra 400 plus system (Roche Diagnostics, Mannheim, Germany).
as §5
In concentration screens, a 50% reduction of the […] reduction capacity of CHO cells was observed when supplemented with 0.5 mM meta-Tyr (Gurer-Orhan et al., (2006)). No data or concentration have been reported for ortho-Tyr supplementation in cell cultures to date. Using a dose-dependent cultivation approach, it was aimed to determine the relevance and tolerable concentrations of meta-Tyr and ortho-Tyr on CHO cell growth performance. For this, a CHO cultivation model described in material and methods was supplemented with either 0.1 mM, 0.3 mM or 0.4 mM para-Tyr, ortho-Tyr or meta-Tyr. We used the standard cultivation process with no supplementation as reference, following so-called “control” or “positive control”. Here, Phe will go into limitation by day 10/11.

[3] = 0.1 mM, 0.3 mM or 0.4 mM supplementation

Structure (SMILES): N[C@@H](Cc1cccc(O)c1)C(=O)O [meta-Tyr, meta-tyrosine]
- reduction of the MTX reduction capacity of CHO cells (CHO cells; 0.5 mM meta-Tyr): 50%
- cell cytotoxicity (CHO cells; meta-Tyr supplementation of CHO cells): dose-dependent cell cytotoxicity
- product titer (product yield) [1]: does not alter product yield
- specific productivity qP (cell-specific product formation rate) [1]: overall higher specific productivity qP; also recorded: increases cell-specific product formation rate qP
- increase of qP compared to control ([1]; 0.1 mM supplementation): +3%
- CTI versus other cultures [1, 3]: dose dependent reduction in CTI
- increase of qP compared to control ([1]; 0.3 mM supplementation): +26%
- increase of qP compared to control ([1]; 0.4 mM supplementation): +28%
- product concentration (overall productivity, product yield) [2]: does not alter product yield
- specific productivity qP (cell-specific product formation rate) [2]: overall higher specific productivity qP
- increase of qP compared to control ([2]; 0.1 mM supplementation): +5%
- cumulative CTI (cell time integral, overall biomass production) [2, 3]: decreased cumulative CTI
- maximal VCD versus other cultures [2, 3]: dose dependent reduced maximal VCD
- increase of qP compared to control ([2]; 0.3 mM supplementation): +26%
- increase of qP compared to control ([2]; 0.4 mM supplementation): +36%
- impact on cell viability ([2]; fed-batch CHO cultivation): no significant impact
- specific productivity qP (cell-specific product formation rate) ([2]; listed as Meta-Tyr): increases cell-specific product formation rate qP

Structure (SMILES): NC(Cc1ccccc1O)C(=O)O (stereo not drawn) [ortho-Tyr, ortho-tyrosine, reference compound]
- product titer (product yield) [1]: does not alter product yield
- product concentration (overall productivity, product yield) [2]: does not alter product yield
- final LDH activity in the supernatant ([2]; compared to control, meta-Tyr and para-Tyr supplementation): higher final LDH activity in the supernatant
- cell viability ([2]; day 14): less than 60%
